Test systems include BT-549 breast; CCRF-CEM leukemia; HCT-116 colon; HL-60(TB) leukemia; HS 578T breast; MDA-MB-231 breast; SK-MEL-28 melanoma; SNB-19 CNS; UACC-257 melanoma; UACC-62 melanoma.
Common to all, as to test: NCI anticancer screen, dose series, 48 h

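These data come from cells grown in 96-well plates and exposed to compound for 48 hours at five concentrations. GI50 marks 50% less growth. TGI is the concentration that stops growth completely.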 Where only a bound is given, the exact number is not on record here.

For `Cn1c(Nc2ccc(C(F)(F)F)cc2)nc2cc(Oc3ccnc(-c4ncc(C(F)(F)F)[nH]4)c3)ccc21`, the GI50 with BT-549 breast is 0.155 µM; in the test with CCRF-CEM leukemia, 0.251 µM; in the test with HCT-116 colon, 0.0787 µM; with HL-60(TB) leukemia, 0.365 µM; in the test on HS 578T breast, 0.0555 µM; in the test on MDA-MB-231 breast, 0.803 µM. The GI50 with SK-MEL-28 melanoma was 0.126 µM; in the test on SNB-19 CNS, 1.04 µM; in the test on UACC-257 melanoma, 0.131 µM; with UACC-62 melanoma, 0.0519 µM. For the same compound, the TGI with BT-549 breast was 12.2 µM; in the test with CCRF-CEM leukemia it was 5.17 µM; with HCT-116 colon, 7.06 µM; with HL-60(TB) leukemia, 7.06 µM; in the test with HS 578T breast, 9.41 µM; in the test with MDA-MB-231 breast it was 12.2 µM. In addition, the TGI with SK-MEL-28 melanoma amounted to 4.79 µM; in the test on SNB-19 CNS it was 20.1 µM; with UACC-257 melanoma, 0.977 µM; in the test on UACC-62 melanoma it was 3.89 µM.

On to `C#Cc1nc(Nc2cc(C)[nH]n2)c2ccccc2n1`, for which the GI50 in the test on BT-549 breast is 0.233 µM; with CCRF-CEM leukemia, 0.248 µM; in the test on HCT-116 colon it was 0.248 µM; in the test with HL-60(TB) leukemia, 0.265 µM; in the test with HS 578T breast, 0.318 µM; in the test on MDA-MB-231 breast, 0.203 µM. Also, the GI50 in the test with SK-MEL-28 melanoma is 0.363 µM; in the test on SNB-19 CNS, 2.27 µM; in the test with UACC-257 melanoma, 0.2 µM; with UACC-62 melanoma, 0.165 µM. Also, the TGI is 0.475 µM with BT-549 breast; 1.31 µM in the test on CCRF-CEM leukemia; 0.951 µM in the test with HCT-116 colon; 0.887 µM in the test on HL-60(TB) leukemia; more than 46.2 µM in the test with HS 578T breast; 0.424 µM with MDA-MB-231 breast. The TGI in the test on SK-MEL-28 melanoma worked out at 1.71 µM; in the test on SNB-19 CNS, 81.1 µM; in the test on UACC-257 melanoma, 0.631 µM; with UACC-62 melanoma, 0.332 µM.

As for `C=COC(=O)N[C@H]1CCc2cc(OC)c(OC)c(OC)c2-c2ccc(SC)c(=O)cc21`, the TGI is less than 0.01 µM in the test with BT-549 breast; more than 80.1 µM in the test on CCRF-CEM leukemia; 0.74 µM in the test on HCT-116 colon; less than 0.01 µM in the test on HL-60(TB) leukemia; more than 4.64 µM with HS 578T breast; 1.88 µM in the test on MDA-MB-231 breast. Besides, the TGI is more than 96.3 µM in the test on SK-MEL-28 melanoma, 24.8 µM with SNB-19 CNS, 77.7 µM in the test on UACC-257 melanoma and more than 75 µM with UACC-62 melanoma.

For `O=c1[nH]c2ccc(O)cc2o1`, the TGI with BT-549 breast, in the test on CCRF-CEM leukemia, in the test on HCT-116 colon, in the test with HL-60(TB) leukemia, in the test with HS 578T breast and in the test on MDA-MB-231 breast was more than 100 µM in each case. The TGI in the test on SK-MEL-28 melanoma, in the test with SNB-19 CNS, in the test with UACC-257 melanoma and in the test on UACC-62 melanoma was more than 100 µM in each case.

In the case of `Cc1ccc2c(C3C(C#N)=C(N)Oc4cc5ccccc5cc43)cc(=O)oc2c1` (stereo not given), the GI50 in the test with BT-549 breast is 3.67 µM; in the test on CCRF-CEM leukemia, 0.976 µM; in the test with HCT-116 colon it was 0.531 µM; in the test on HL-60(TB) leukemia, 0.424 µM; with HS 578T breast it was 3.29 µM; in the test on MDA-MB-231 breast, 8.2 µM. The GI50 in the test on SK-MEL-28 melanoma is 12.3 µM; with SNB-19 CNS, 1.79 µM; in the test on UACC-257 melanoma, 24.5 µM; in the test with UACC-62 melanoma it was 0.704 µM. Further, the TGI in the test on BT-549 breast is 64.3 µM; in the test on CCRF-CEM leukemia it was more than 100 µM; in the test with HCT-116 colon, 32.8 µM; with HL-60(TB) leukemia, 17 µM; in the test on HS 578T breast, more than 100 µM; with MDA-MB-231 breast it was more than 100 µM. Further, the TGI with SK-MEL-28 melanoma, with SNB-19 CNS, in the test with UACC-257 melanoma and with UACC-62 melanoma was more than 100 µM in each case.

On to `O=[P@@]1(c2ccccc2)O[C@H](COCc2ccccc2)[C@@H](OCc2ccccc2)[C@H](OCc2ccccc2)[C@H]1NCc1ccccc1`, for which the GI50 was 2.89 µM with BT-549 breast; 3.23 µM in the test on CCRF-CEM leukemia; 2.74 µM with HCT-116 colon; 2.15 µM in the test on HL-60(TB) leukemia; 3.43 µM in the test on HS 578T breast; 3.22 µM with MDA-MB-231 breast. Also, the GI50 is 4.48 µM with SK-MEL-28 melanoma, 3.71 µM with SNB-19 CNS, 2.22 µM with UACC-257 melanoma and 2.92 µM with UACC-62 melanoma. The TGI in the test on BT-549 breast is 16.2 µM; with CCRF-CEM leukemia, more than 100 µM; in the test on HCT-116 colon, more than 100 µM; with HL-60(TB) leukemia it was 6.09 µM; in the test on HS 578T breast, more than 100 µM; in the test with MDA-MB-231 breast, more than 100 µM. Also, the TGI in the test with SK-MEL-28 melanoma was more than 100 µM; with SNB-19 CNS, more than 100 µM; in the test with UACC-257 melanoma, 6.76 µM; in the test with UACC-62 melanoma, 13.1 µM.

For `BrCc1cccc(C[P+](c2ccccc2)(c2ccccc2)c2ccccc2)c1`, the GI50 with BT-549 breast was 34.5 µM; in the test with CCRF-CEM leukemia, 13.3 µM; in the test on HCT-116 colon it was 6.02 µM; with HL-60(TB) leukemia it was 13.9 µM; with HS 578T breast, 18.4 µM; with MDA-MB-231 breast, 33 µM. Moreover, the GI50 with SK-MEL-28 melanoma was 21.7 µM; in the test on SNB-19 CNS, 12.1 µM; in the test with UACC-257 melanoma, 5.49 µM; with UACC-62 melanoma it was 7.97 µM. The TGI is more than 100 µM with BT-549 breast; more than 100 µM with CCRF-CEM leukemia; more than 100 µM in the test with HCT-116 colon; 49.9 µM with HL-60(TB) leukemia; more than 100 µM in the test with HS 578T breast; more than 100 µM in the test with MDA-MB-231 breast. For the same compound, the TGI with SK-MEL-28 melanoma, in the test with SNB-19 CNS, in the test on UACC-257 melanoma and in the test with UACC-62 melanoma was more than 100 µM throughout.

In the case of `CN(C)CCC(=O)C(=Cc1ccc(O)cc1)C(=O)CCN(C)C`, the GI50 in the test with BT-549 breast was more than 100 µM; in the test with CCRF-CEM leukemia it was 43.4 µM; with HCT-116 colon, 44.8 µM; in the test on HL-60(TB) leukemia it was more than 100 µM; in the test with HS 578T breast, more than 100 µM; in the test with MDA-MB-231 breast, more than 100 µM. The GI50 in the test with SK-MEL-28 melanoma, in the test with SNB-19 CNS, with UACC-257 melanoma and with UACC-62 melanoma was more than 100 µM throughout. For the same compound, the TGI in the test with BT-549 breast, with CCRF-CEM leukemia, in the test with HCT-116 colon, in the test with HL-60(TB) leukemia, with HS 578T breast and in the test on MDA-MB-231 breast was more than 100 µM in each case. Further, the TGI in the test on SK-MEL-28 melanoma, in the test with SNB-19 CNS, in the test with UACC-257 melanoma and in the test with UACC-62 melanoma was more than 100 µM throughout.
